# Test results as given in patent publication US7250304B2, “Functional assay of high-density lipoprotein” (The Regents of the University of California, priority 2000, dated 2007).
# What was measured:
# [1] = system: LDL; assay: Removal of 13-HPODE and 15-HPETE from LDL (RP-HPLC, mass spectrometry); parameters: species or system human; conditions: LDL 1 mg/ml with apo A-I 100 μg/ml, 2 hrs
# Method: FIG. 6, panels A through H, illustrate the removal of 13-HPODE and 15-HPETE by apo A-I from LDL. Freshly isolated LDL (1 mg/ml) was incubated alone (LDL sham), or with apo A-I (100 μg/ml) in M199 for 2 hrs, with gentle mixing. For controls, 100 μg/ml apo A-I was incubated alone in M 199 for 2 hrs (A-I Sham, Panel A and Panel E) or 1 mg/ml freshly isolated LDL was incubated alone in M 199 for 2 hrs (LDL Sham, Panel B and Panel F) with gentle mixing at 37° C. The LDL and apo A-I were then re-isolated by centrifugation using Millipore molecular weight cut-off filters (100 kDa). Lipids were extracted from apo A-I and from LDL and were analyzed by reverse phase HPLC.
# High performance reverse phase liquid chromatography (RP-HPLC) was conducted according to the methods of Ames and colleagues (Yamamoto and Ames (1987) Free Rad. Biol. Med. 3: 359-361), Kambayashi and colleagues (Kambayashi et al. (1997) J. Biochem. 121: 425-431), and Alex Sevanian (personal communication). In brief, the analyses were performed by injecting isolated lipids resuspended in mobile solvent onto the column and eluting with a flow rate of 1.0 ml/min. Detection of fatty acid oxidation products was performed by UV absorbance with a diode array detector (Beckman Instruments) scanning from 200 to 350 nm or with an evaporative light scattering detector (SEDEX 55, France). […]
# [2] = system: C57BL/6 mice; assay: Injection into mice, LDL isolated and tested on human artery wall cocultures
substance,measurement,setting,value
"apo A-I: Human apo A-I from Sigma, major apolipoprotein of HDL; infused into humans as apo A-I/phosphatidylcholine discs",removal of HPODE and HPETE from freshly isolated LDL,[1],effectively removed
same,time after injection at which LDL was rendered resistant to oxidation,[2],≤ 3 h
same,persistence of LDL resistance to oxidation,[2]; 100 μg injected,up to 24 hours
